Results from US20090306009A1, “Modulation of the P2Y2 Receptor Pathway” (P2-SCIENCE APS, priority 2005, published 2009).
“Also recorded” adds a separate entry of the source. Like-named read-outs stand apart in the source and are kept apart here.

Experiments:
[1] = tested on: resting leg of healthy male subjects; assay: Leg haemodynamic responses to intrafemoral artery infusion of purinergic vasodilators alone and combined with tyramine; assay type: in vivo, human; conditions: for effect on increased sympathetic vasoconstrictor activity evoked by tyramine: infusion in the resting leg; for leg blood flow (LBF) during vasodilator infusion: intrafemoral artery infusion of vasodilator alone, resting leg, rest about 0.5; for leg blood flow (LBF) during vasodilator infusion / leg a-v O2 difference during vasodilator infusion / leg blood flow (LBF) during combined vasodilator and tyramine infusion / leg a-v O2 difference during combined vasodilator and tyramine infusion: mean±S.E.M.; for leg vasoconstriction caused by tyramine during vasodilator infusion: tyramine added to the infusion of the named vasodilator; for leg a-v O2 difference during vasodilator infusion: vasodilator alone; for leg blood flow (LBF) during combined vasodilator and tyramine infusion: vasodilator plus tyramine about 13.2 μmol/min; for leg a-v O2 difference during combined vasodilator and tyramine infusion: vasodilator plus tyramine; for effect of tyramine on leg vascular conductance during vasodilator infusion / effect of tyramine on LBF during vasodilator infusion: tyramine added to vasodilator infusion; for effect of tyramine on LBF during vasodilator infusion: P=0.53
Method: This study was performed in nine healthy male subjects from Denmark. The subjects were fully informed of any risks and discomforts associated with the experiments before giving their informed written consent to participate. The studies conformed to the code of Ethics of the World Medical Association (Declaration of Helsinki) and were approved by the Ethics Committee for Copenhagen and Frederiksberg communities.
Subjects reported to the laboratory at 8 a.m. or 1 p.m., following the ingestion of a light breakfast or lunch. Upon arrival, they rested in a supine position while three catheters were placed under local anaesthesia (1% lidocaine) into the femoral artery and vein of the right leg and in the femoral artery of the left leg using the Seldinger technique. The femoral artery and vein catheters were positioned 1-2 cm distal from the inguinal ligament. A thermistor (Edslab probe 94-0.3-2.5F) to measure venous blood temperature was inserted through the femoral venous catheter orientated in the anterograde direction for the determination of femoral venous blood flow. Femoral venous blood flow (an index of leg blood flow (LBF)) was determined by the constant infusion thermodilution technique (Andersen & Saltin, 1985 J Physiol. 366:233-49; González-Alonso et al. 2000 J Physiol. 524:603-15; Am J Physiol Heart Circ Physiol. 278(2):H321-30). LBF represents the average of two measurements made 1-2 min after the start of exercise and 1-2 min after the start of infusion of ATP, adenosine or tyramine. Arterial blood pressure was continuously monitored by a pressure transducer (Pressure Monitoring Kit, Baxter) at the level of inguinal region and calculated by integration of the pressure curve. Heart rate was determined from an electrocardiogram. All data were continuously recorded using a Powerlab system (ADInstruments, Sydney, Australia).
Leg blood flow (LBF) and mean arterial pressure (MAP) was measured during […] purinergically-induced hyperaemic conditions: (1) Intrafemoral artery infusion of adenosine (vasodilator control), (2) sequential intraarterial infusion of AMP, ADP, ATP or UTP (vasodilators), and (3), comparing the responses with the combined infusion with the vasoconstrictor drug tyramine, which evokes endogenous release of noradrenaline from sympathetic nerve endings.
Adenosine (Item Development AB, Stocksund, Sweden) was dissolved in isotonic saline (1.25 mg ml^−1) and infused at a rate of 16 μmol min^−1. AMP (Sigma) was dissolved in isotonic saline and infused at 71 μmol/min, ADP (Sigma) was dissolved in isotonic saline at […], ATP (Sigma) was dissolved in isotonic saline at 1 μmol/^min and UTP (Sigma) was dissolved in isotonic saline 1 μmol min^−1
95:2370-4; J Physiol. 547:971-6).
(§1) The combined infusion of adenosine and tyramine was to evoke a vasoconstrictor response in the resting leg of about 50%, without causing increases in arterial blood pressure, as previously documented in the Leg (Rosenmeier et al. 2004 J. Physiol. 558:351-365). Tyramine (Sigma T-2879) dissolved in isotonic saline (0.52 mg ml-1) was infused at a rate of about 13.2 μmol/min through all the tyramine trials.
The subjects first received separate infusions of adenosine, AMP, ADP, ATP or UTP for 4 min followed by combined infusions of vasodilator and tyramine for an additional 4 min.
Plasma noradrenaline and adrenaline concentrations were determined with high performance liquid chromatography with electrochemical detection (Hallman et al. 1978 Life Sci. 23(10):1049-52). Arterial and femoral haemoglobin concentration and O2 saturation were determined spectrophotometrically (OSM-3 Hemoximeter, Radiometer). PO2 was determined with the Astrup technique (ABL 5, Radiometer, Copenhagen, Denmark).
Leg vascular conductance was calculated as the quotient between LBF and mean arterial pressure. Leg O2 delivery was calculated by multiplying LBF by arterial O2 content. […]

[2] = tested on: resting leg; assay: Tyramine infusion alone in the resting leg (separate studies); assay type: in vivo, human; conditions: tyramine about 13.2 μmol/min, no vasodilator
Method: as §1

[3] = tested on: leg blood flow; assay: Maximal nucleotide-induced vasodilatation at rest relative to peak LBF during maximal bicycling exercise; assay type: in vivo, human
Source text: Maximal UTP-induced vasodilatation was investigated at rest accounted for […] of the peak LBF during maximal bicycling exercise in comparison to the 78% increase in LBF previously registered for ATP (Rosenmeier et al. 2004 J. Physiol. 558:351-365).

[4] = tested on: leg blood flow; conditions: previously registered, Rosenmeier et al. 2004; cited from earlier work
[5] = vasodilator alone versus combined with tyramine

Compound	effect on increased sympathetic vasoconstrictor activity evoked by tyramine [1]	leg blood flow (LBF) during vasodilator infusion [1] [L/min]	leg vasoconstriction caused by tyramine during vasodilator infusion [1] [%]	change of leg a-v O2 difference on addition of tyramine [1, 5]	leg a-v O2 difference during vasodilator infusion [1]	leg blood flow (LBF) during combined vasodilator and tyramine infusion [1] [L/min]	leg a-v O2 difference during combined vasodilator and tyramine infusion [1] [ml l^−1]	reduction of blood flow by tyramine infusion [2] [%]	maximal vasodilatation as share of peak LBF during maximal bicycling exercise [3] [%]	effect of tyramine on leg vascular conductance during vasodilator infusion [1]	effect of tyramine on LBF during vasodilator infusion [1]	leg VO2, vasodilator alone versus with tyramine [1, 5]	maximal vasodilatation as share of peak LBF during maximal bicycling exercise [4] [%]
Nc1ncnc2c1ncn2[C@@H]1O[C@H](CO)[C@@H](O)[C@H]1O [adenosine]	does not; also recorded: substantial vasoconstrictor response	3.8 ± 0.3	56	elevated	7.7±0.5 ml l^−1	1.7 ± 0.2	26.0±2.2	–	–	–	–	–	–
NCCc1ccc(O)cc1 [tyramine]	–	–	–	–	–	–	–	44±3	–	–	–	–	–
O=c1ccn([C@@H]2O[C@H](COP(=O)(O)OP(=O)(O)OP(=O)(O)O)[C@@H](O)[C@H]2O)c(=O)[nH]1 [UTP]	fully blunts	–	0	Absolutely no change; also recorded: unchanged	7.1±0.9 ml l^−1	–	7.1±1.5	–	50	did not alter; also recorded: no reduction	did not alter; also recorded: no reduction	–	–
Nc1ncnc2c1ncn2[C@@H]1O[C@H](COP(=O)(O)O)[C@@H](O)[C@H]1O [AMP]	does not; also recorded: substantial vasoconstrictor response	3.7 ± 0.4	53	elevated	4.5±0.5 ml l^−1	1.7 ± 0.2	15.3±3.1	–	–	–	–	–	–
Nc1ncnc2c1ncn2[C@@H]1O[C@H](COP(=O)(O)OP(=O)(O)O)[C@@H](O)[C@H]1O [ADP]	does not; also recorded: substantial vasoconstrictor response	3.34 ± 0.4	30	–	6.0+1 ml l^−1	2.3 ± 0.3	–	–	–	–	–	statistically significantly different	–
Nc1ncnc2c1ncn2[C@@H]1O[C@H](COP(=O)(O)OP(=O)(O)OP(=O)(O)O)[C@@H](O)[C@H]1O [ATP]	fully blunts	–	0	Absolutely no change; also recorded: unchanged	7.9±1.7 ml l^−1	–	5.7±1.6	–	–	did not alter; also recorded: no reduction	did not alter; also recorded: no reduction	–	78
